Experimental data as given in patent US20210267203A1, “PESTICIDALLY ACTIVE AZOLE-AMIDE COMPOUNDS” (SYNGENTA PARTICIPATIONS AG, priority 2018, published 2021).

Columns and labels:
Type in all cases: in vivo
[1] = tested on: Euschistus heros (Neotropical Brown Stink Bug); assay: Example B2: Euschistus heros (neotropical brown stink bug), soybean leaves sprayed, N2 nymphs; conditions: 120 h, application rate 200 ppm, 5 days after infestation, read-out: effect in at least one of the two categories (mortality or growth inhibition)
Procedure, shortened: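 Soybean leaves on agar sprayed with aqueous test solutions made from 10,000 ppm DMSO stocks, dried, then infested with N2 nymphs. Mortality and growth inhibition scored versus untreated samples 5 days after infestation; activity threshold at 200 ppm.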

[2] = tested on: Plutella xylostella (Diamond Back Moth); assay: Example B5: Plutella xylostella (diamond back moth), artificial diet, 24-well, eggs; conditions: 192 h, application rate 200 ppm, 8 days after infestation, read-out: effect in at least one of the two categories (mortality or growth inhibition)
Procedure, shortened: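 Artificial diet in 24-well plates treated with aqueous dilutions of 10,000 ppm DMSO stocks, dried, then infested with Plutella eggs. Mortality and growth inhibition scored against untreated samples 8 days after infestation; activity rated at 200 ppm application rate.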

[3] = tested on: Tetranychus urticae (Two-Spotted Spider Mite); assay: Example B11: Tetranychus urticae (two-spotted spider mite), feeding/contact activity; conditions: 192 h, application rate 200 ppm, mixed population (mobile stages), 8 days after infestation
Experimental: Example B11: Tetranychus urticae (Two-Spotted Spider Mite):Feeding/Contact Activity
Bean leaf discs on agar in 24-well microtiter plates were sprayed with aqueous test solutions prepared from 10,000 ppm DMSO stock solutions. After drying the leaf discs were infested with a mite population of mixed ages. The samples were assessed for mortality on mixed population (mobile stages) 8 days after infestation.

[4] = tested on: Myzus persicae (Green Peach Aphid); assay: Example B13: activity against Myzus persicae (green peach aphid), 96-well sucrose solution; conditions: 120 h, application rate 50 ppm, 5 days after infestation
Procedure, shortened: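 Compounds, from 10,000 ppm DMSO stocks, mixed into sucrose solution in wells under stretched Parafilm, with aphids placed on the membrane in an inverted feeding setup. Mortality scored 5 days after infestation.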

[5] = tested on: Plutella xylostella (Diamondback Moth); assay: Example B14: activity against Plutella xylostella (diamondback moth), 96-well artificial diet; conditions: 216 h, application rate 500 ppm, 9 days after infestation
Procedure, shortened: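 Diet in 96-well plates was treated with aqueous dilutions of 10,000 ppm DMSO stocks, dried, and infested with 30 eggs per well via a netted lid; hatching L1 larvae fed on the diet. Mortality scored 9 days after infestation.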

[6] = tested on: Diabrotica Balteata (Corn Root Worm); assay: Example B1: Diabrotica balteata (corn root worm), maize sprouts sprayed, L2 larvae; conditions: 96 h, application rate 200 ppm, 4 days after infestation, read-out: effect in at least one of the two categories (mortality or growth inhibition)
Procedure, shortened: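 Maize sprouts on agar sprayed with aqueous dilutions of 10,000 ppm DMSO stocks, dried, then infested with 6–10 L2 larvae per well. Mortality and growth inhibition scored against untreated samples 4 days after infestation; rates of 200 ppm.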

[7] = tested on: Myzus persicae (Green Peach Aphid); assay: Example B6: Myzus persicae (green peach aphid), feeding/contact activity; conditions: 144 h, application rate 200 ppm, 6 days after infestation
Experimental: Example B6: Myzus persicae (Green Peach Aphid):Feeding/Contact Activity
(§1) Sunflower leaf discs were placed onto agar in a 24-well microtiter plate and sprayed with aqueous test solutions prepared from 10,000 ppm DMSO stock solutions. After drying, the leaf discs were infested with an aphid population of mixed ages. The samples were assessed for mortality 6 days after infestation.

[8] = tested on: Myzus persicae (Green Peach Aphid); assay: Example B7: Myzus persicae (green peach aphid), systemic activity; conditions: 144 h, test rate 24 ppm, pea seedling roots in test solution, 6 days
Experimental: Example B7: Myzus persicae (Green Peach Aphid), Systemic Activity
Roots of pea seedlings infested with an aphid population of mixed ages were placed directly into aqueous test solutions prepared from 10,000 DMSO stock solutions. The samples were assessed for mortality 6 days after placing seedlings into test solutions.

[9] = tested on: Myzus persicae (Green Peach Aphid); assay: Example B8: Myzus persicae (green peach aphid), intrinsic activity; conditions: 120 h, test rate 12 ppm, sucrose solution, 24-well, 5 days after infestation
Procedure, shortened: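 Compounds diluted from 10,000 ppm DMSO stock were mixed with sucrose solution under stretched Parafilm in a sachet feeding setup, with aphid-infested pea seedlings placed on the membrane. Mortality was scored 5 days after infestation.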

[10] = tested on: Thrips tabaci (Onion Thrips); assay: Example B12: Thrips tabaci (onion thrips), feeding/contact activity; conditions: 144 h, application rate 200 ppm, mixed ages, 6 days after infestation
Experimental: Example B12: Thrips tabaci (Onion Thrips) Feeding/Contact Activity
as §1, with “on” for “onto”, “in” for “in a”, “plates” for “plate”, “drying” for “drying,”, “a thrips” for “an aphid”

[11] = tested on: Frankliniella occidentalis (Western Flower Thrips); assay: Example B3: Frankliniella occidentalis (western flower thrips), feeding/contact activity; conditions: 168 h, application rate 200 ppm, mixed ages, 7 days after infestation
Experimental: Example B3: Frankliniella occidentalis (Western Flower Thrips):Feeding/Contact Activity
Sunflower leaf discs were placed on agar in 24-well microtiter plates and sprayed with aqueous test solutions prepared from 10,000 DMSO stock solutions. After drying the leaf discs were infested with a Frankliniella population of mixed ages. The samples were assessed for mortality 7 days after infestation.

[12] = tested on: Spodoptera littoralis (Egyptian Cotton Leaf Worm); assay: Example B9: Spodoptera littoralis (Egyptian cotton leaf worm), cotton leaf discs sprayed, L1 larvae; conditions: foliar, 72 h, application rate 200 ppm, 3 days after infestation
Procedure, shortened: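 Leaf discs on agar sprayed with aqueous dilutions from 10,000 ppm DMSO stock, dried, then infested with five L1 larvae. Mortality, anti-feeding and growth inhibition scored against untreated samples 3 days after infestation; control counted when any category exceeds untreated.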

[13] = tested on: Spodoptera littoralis (Egyptian Cotton Leaf Worm); assay: Example B10: Spodoptera littoralis (Egyptian cotton leaf worm), uptake by lettuce roots from agar, eggs; conditions: 144 h, test rate 12.5 ppm, lettuce root uptake, 6 days after infestation, read-out: effect in at least one of the three categories (mortality, anti-feeding, or growth inhibition)
Procedure, shortened: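 Compound mixed into agar from a 10,000 ppm DMSO stock; lettuce grown on it for 7 days for root uptake. Cut leaves infested with Spodoptera eggs; mortality, anti-feedant effect and growth inhibition scored against untreated samples 6 days after infestation.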

[14] = tested on: Chilo suppressalis (Striped Rice Stemborer); assay: Example B4: Chilo suppressalis (striped rice stemborer), artificial diet, L2 larvae; conditions: 144 h, application rate 200 ppm, 6 days after infestation
Procedure, shortened: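 L2 larvae (6-8 per well) placed on artificial diet treated with aqueous test solutions prepared from 10,000 ppm DMSO stocks, after drying. Mortality, anti-feeding and growth inhibition scored against untreated samples 6 days after infestation; control means at least one category exceeds untreated.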

CC(c1ncnn1-c1ncccn1)N(CC1CC1)C(=O)c1cc(C(C)(C)C#N)cc(Cl)n1 (stereo not drawn) [P27, 6-chloro-4-(1-cyano-1-methyl-ethyl)-N-(cyclopropylmethyl)-N-[1-(2-pyrimidin-2-yl-1,2,4-triazol-3-yl)ethyl]pyridine-2-carboxamide]
≥ 80%: percent effect (mortality or growth inhibition) at 200 ppm [1] | percent effect (mortality or growth inhibition) at 200 ppm [2] | mortality at 200 ppm [3] | mortality at 50 ppm [4] | mortality at 500 ppm [5]

CC(c1ncnn1-c1ncccn1)N(CC1CC1)C(=O)c1cc(C(F)(F)F)cc(S(C)(=O)=O)c1 (stereo not drawn) [P34, N-(cyclopropylmethyl)-3-methylsulfonyl-N-[1-(2-pyrimidin-2-yl-1,2,4-triazol-3-yl)ethyl]-5-(trifluoromethyl)benzamide]
≥ 80%: percent effect (mortality or growth inhibition) at 200 ppm [6] | percent effect (mortality or growth inhibition) at 200 ppm [1] | percent effect (mortality or growth inhibition) at 200 ppm [2] | mortality at 200 ppm [7] | mortality at 24 ppm [8] | mortality at 12 ppm [9] | mortality at 200 ppm [3] | mortality at 200 ppm [10] | mortality at 50 ppm [4] | mortality at 500 ppm [5]

CC(c1ncnn1-c1ncccn1)N(CC1CC1)C(=O)c1cc(C(F)(F)F)cc(C2(C(F)(F)F)CC2)c1 (stereo not drawn) [P45, N-(cyclopropylmethyl)-N-[1-(2-pyrimidin-2-yl-1,2,4-triazol-3-yl)ethyl]-3-(trifluoromethyl)-5-[1-(trifluoromethyl)cyclopropyl]benzamide]
≥ 80%: percent effect (mortality or growth inhibition) at 200 ppm [6] | percent effect (mortality or growth inhibition) at 200 ppm [1] | mortality at 200 ppm [11] | percent effect (mortality or growth inhibition) at 200 ppm [2] | mortality at 24 ppm [8] | mortality at 12 ppm [9] | percent control (mortality, anti-feedant effect or growth inhibition) at 200 ppm [12] | percent effect (mortality, anti-feeding or growth inhibition) at 12.5 ppm [13] | mortality at 50 ppm [4] | mortality at 500 ppm [5]

CC(NC(=O)c1cc(-c2cccnc2Cl)cc(C(F)(F)F)c1)c1ncnn1-c1ncccn1 (stereo not drawn) [P62, 3-(2-chloro-3-pyridyl)-N-[1-(2-pyrimidin-2-yl-1,2,4-triazol-3-yl)ethyl]-5-(trifluoromethyl)benzamide]
≥ 80%: mortality at 200 ppm [3]

CC(NC(=O)c1cc(C(F)(F)F)cc(S(C)(=O)=O)c1)c1ncnn1-c1ncccn1 (stereo not drawn) [P64, 3-methylsulfonyl-N-[1-(2-pyrimidin-2-yl-1,2,4-triazol-3-yl)ethyl]-5-(trifluoromethyl)benzamide]
≥ 80%: percent effect (mortality or growth inhibition) at 200 ppm [6] | percent effect (mortality or growth inhibition) at 200 ppm [1] | mortality at 200 ppm [11] | percent control (mortality, anti-feedant effect or growth inhibition) at 200 ppm [14] | percent effect (mortality or growth inhibition) at 200 ppm [2] | mortality at 200 ppm [7] | mortality at 24 ppm [8] | mortality at 12 ppm [9] | percent control (mortality, anti-feedant effect or growth inhibition) at 200 ppm [12] | mortality at 50 ppm [4]

C[C@H](NC(=O)c1cc(C2CC2)cc(C(F)(F)F)c1)c1ncnn1-c1ncccn1 [P72, 3-cyclopropyl-N-[(1S)-1-(2-pyrimidin-2-yl-1,2,4-triazol-3-yl)ethyl]-5-(trifluoromethyl)benzamide]
≥ 80%: percent effect (mortality or growth inhibition) at 200 ppm [6] | percent effect (mortality or growth inhibition) at 200 ppm [1] | mortality at 200 ppm [11] | percent control (mortality, anti-feedant effect or growth inhibition) at 200 ppm [14] | percent effect (mortality or growth inhibition) at 200 ppm [2] | mortality at 200 ppm [7] | mortality at 12 ppm [9] | percent control (mortality, anti-feedant effect or growth inhibition) at 200 ppm [12]

Cc1nc(C(C)NC(=O)c2cc(C(F)(F)F)cc(C3(C#N)CC3)c2)n(-c2ncc(Br)cn2)n1 (stereo not drawn) [P78, N-[1-[2-(5-bromopyrimidin-2-yl)-5-methyl-1,2,4-triazol-3-yl]ethyl]-3-(1-cyanocyclopropyl)-5-(trifluoromethyl)benzamide]
≥ 80%: percent effect (mortality or growth inhibition) at 200 ppm [6] | percent effect (mortality or growth inhibition) at 200 ppm [1] | mortality at 200 ppm [11] | percent control (mortality, anti-feedant effect or growth inhibition) at 200 ppm [14] | percent effect (mortality or growth inhibition) at 200 ppm [2] | mortality at 12 ppm [9] | percent control (mortality, anti-feedant effect or growth inhibition) at 200 ppm [12]

CC(NC(=O)c1cc(C(F)(F)F)cc(C(C)(C)C#N)c1)c1ncnn1-c1ncc(Br)cn1 (stereo not drawn) [P79, N-[1-[2-(5-bromopyrimidin-2-yl)-1,2,4-triazol-3-yl]ethyl]-3-(1-cyano-1-methyl-ethyl)-5-(trifluoromethyl)benzamide]
≥ 80%: percent effect (mortality or growth inhibition) at 200 ppm [6] | percent effect (mortality or growth inhibition) at 200 ppm [1] | percent control (mortality, anti-feedant effect or growth inhibition) at 200 ppm [14] | percent effect (mortality or growth inhibition) at 200 ppm [2] | percent control (mortality, anti-feedant effect or growth inhibition) at 200 ppm [12] | mortality at 200 ppm [3]

Cc1nc(C(C)NC(=O)c2cc(C(F)(F)F)cc(C3(C#N)CC3)c2)n(-c2ncccn2)n1 (stereo not drawn) [P83, 3-(1-cyanocyclopropyl)-N-[1-(5-methyl-2-pyrimidin-2-yl-1,2,4-triazol-3-yl)ethyl]-5-(trifluoromethyl)benzamide]
≥ 80%: percent effect (mortality or growth inhibition) at 200 ppm [6] | percent effect (mortality or growth inhibition) at 200 ppm [1] | mortality at 200 ppm [11] | percent control (mortality, anti-feedant effect or growth inhibition) at 200 ppm [14] | percent effect (mortality or growth inhibition) at 200 ppm [2] | mortality at 200 ppm [7] | mortality at 24 ppm [8] | mortality at 12 ppm [9] | percent control (mortality, anti-feedant effect or growth inhibition) at 200 ppm [12] | mortality at 200 ppm [3] | mortality at 50 ppm [4]

CC(NC(=O)c1cc(C(F)(F)F)cc(C2(C#N)CC2)c1)c1ncnn1-c1ncccn1 (stereo not drawn) [P85, 3-(1-cyanocyclopropyl)-N-[1-(2-pyrimidin-2-yl-1,2,4-triazol-3-yl)ethyl]-5-(trifluoromethyl)benzamide]
≥ 80%: percent effect (mortality or growth inhibition) at 200 ppm [6] | percent effect (mortality or growth inhibition) at 200 ppm [1] | mortality at 200 ppm [11] | percent control (mortality, anti-feedant effect or growth inhibition) at 200 ppm [14] | percent effect (mortality or growth inhibition) at 200 ppm [2] | mortality at 200 ppm [7] | mortality at 12 ppm [9] | percent control (mortality, anti-feedant effect or growth inhibition) at 200 ppm [12] | percent effect (mortality, anti-feeding or growth inhibition) at 12.5 ppm [13] | mortality at 50 ppm [4]
